# Experimental data: patent US9204653B2, “5-fluoro pyrimidine derivatives” (DOW AGROSCIENCES LLC, priority 2008, dated 2015)
# Read-outs that look alike come from different tables or passages of the source.
# Tested on: Mycosphaerella graminicola; Anamorph: Septoria tritici; Bayer Code SEPTTR
# Assay: Leaf blotch of wheat, foliar fungicide treatment, one day protectant (1DP) or three day curative (3DC)
# Assay type: in vivo, Septoria tritici on wheat plants (variety Yuma)
# Conditions: Zymoseptoria tritici; for pest or weed control at 50 ppm / pest or weed control at 200 ppm: % disease control rating
# [1] = 24 h, one day protectant (1DP), 25 ppm (first 1DP column), percent control rating, read-out: SETTTR 1DP 25 ppm
# [2] = 24 h, one day protectant (1DP), 25 ppm as printed (second 1DP column), percent control rating, read-out: SETTTR 1DP 25 ppm
# [3] = 72 h, three day curative (3DC), 25 ppm, percent control rating, read-out: SEPTTR 3DC 25 ppm
# [4] = 72 h, three day curative (3DC), percent control rating, read-out: SEPTTR 3DC 100 ppm
# [5] = 24 h, one day protectant (1DP), 25 ppm, rating of percent disease control, read-out: SETTTR 1DP 25 ppm
# [6] = 24 h, one day protectant (1DP), rating of percent disease control, read-out: SEPTTR 1DP 100 ppm
# [7] = 72 h, three day curative (3DC), 25 ppm, rating of percent disease control, read-out: SEPTTR 3DC 25 ppm
# [8] = 72 h, three day curative (3DC), rating of percent disease control, read-out: SEPTTR 3DC 100 ppm
# [9] = 24 h, one day protectant (1DP), 25 ppm, percent disease control rating, read-out: SETTTR 1DP 25 ppm
# [10] = 24 h, one day protectant (1DP), percent disease control rating, read-out: SEPTTR 1DP 100 ppm
# [11] = 72 h, three day curative (3DC), 25 ppm, percent disease control rating, read-out: SEPTTR 3DC 25 ppm
# [12] = 72 h, three day curative (3DC), percent disease control rating, read-out: SEPTTR 3DC 100 ppm
# [13] = 24 h, one day protectant, 25 ppm, rating of percent disease control, read-out: SETTTR 1DP 25 ppm
# [14] = 24 h, one day protectant, rating of percent disease control, read-out: SEPTTR 1DP 100 ppm
# [15] = 72 h, three day curative, 25 ppm, rating of percent disease control, read-out: SEPTTR 3DC 25 ppm
# [16] = 72 h, three day curative, rating of percent disease control, read-out: SEPTTR 3DC 100 ppm
smiles,measurement,setting,value
Cc1ccc(COc2ncc(F)c(NNc3ccc(Br)cc3)n2)cc1 [Compound 1030],pest or weed control at 25 ppm,[1],0 to 25%
same,pest or weed control at 25 ppm,[2],0 to 25%
same,pest or weed control at 25 ppm,[3],0 to 25%
same,pest or weed control at 100 ppm,[4],0 to 25%
Cc1ccc(COc2ncc(F)c(NCc3ccc(Cl)cc3)n2)cc1 [Compound 892],pest or weed control at 50 ppm,"24 h, one day protectant",51 to 75%
same,pest or weed control at 200 ppm,"24 h, one day protectant",76 to 100%
Fc1cnc(OCc2ccccc2Cl)nc1NCc1ccc(Cl)cc1 [Compound 879],pest or weed control at 50 ppm,"24 h, one day protectant",76 to 100%
same,pest or weed control at 200 ppm,"24 h, one day protectant",76 to 100%
C#CCOc1ncc(F)c(N)n1 [Compound 746],pest or weed control at 25 ppm,[5],0 to 25%
same,pest or weed control at 100 ppm,[6],0 to 25%
same,pest or weed control at 25 ppm,[7],0 to 25%
same,pest or weed control at 100 ppm,[8],76 to 100%
COc1cccc(COc2ncc(F)c(NCc3ccccc3F)n2)c1 [Compound 416],pest or weed control at 25 ppm,[5],0 to 25%
same,pest or weed control at 100 ppm,[6],0 to 25%
same,pest or weed control at 25 ppm,[7],0 to 25%
same,pest or weed control at 100 ppm,[8],26 to 50%
Nc1nc(OCc2cccc(CO)c2)ncc1F [Compound 133],pest or weed control at 25 ppm,[9],51 to 75%
same,pest or weed control at 100 ppm,[10],76 to 100%
same,pest or weed control at 25 ppm,[11],51 to 75%
same,pest or weed control at 100 ppm,[12],76 to 100%
"C=CCONc1nc(OCc2cccc(OC)c2)ncc1F [Compound 32, O-Allyl-N-(5-fluoro-2-(3-methoxybenzyloxy)pyrimidin-4-yl)hydroxylamine]",pest or weed control at 25 ppm,[9],26 to 50%
same,pest or weed control at 100 ppm,[10],76 to 100%
same,pest or weed control at 25 ppm,[11],0 to 25%
same,pest or weed control at 100 ppm,[12],76 to 100%
Fc1cnc(OCc2ccco2)nc1NCc1cccs1 [Compound 899],pest or weed control at 50 ppm,"24 h, one day protectant",26 to 50%
same,pest or weed control at 200 ppm,"24 h, one day protectant",76 to 100%
Fc1ccc(COc2ncc(F)c(NNc3nc4ccccc4s3)n2)cc1 [Compound 1044],pest or weed control at 25 ppm,[1],0 to 25%
same,pest or weed control at 25 ppm,[2],0 to 25%
same,pest or weed control at 25 ppm,[3],0 to 25%
same,pest or weed control at 100 ppm,[4],0 to 25%
CN(CCOc1ncc(F)c(N)n1)c1ccccc1 [Compound 372],pest or weed control at 25 ppm,[5],26 to 50%
same,pest or weed control at 100 ppm,[6],76 to 100%
COc1cccc(COc2ncc(F)c(NNc3ccccc3)n2)c1 [Compound 306],pest or weed control at 25 ppm,[5],0 to 25%
same,pest or weed control at 100 ppm,[6],76 to 100%
same,pest or weed control at 25 ppm,[7],26 to 50%
same,pest or weed control at 100 ppm,[8],26 to 50%
Fc1cnc(OCc2ccco2)nc1NC1CC1 [Compound 898],pest or weed control at 50 ppm,"24 h, one day protectant",0 to 25%
same,pest or weed control at 200 ppm,"24 h, one day protectant",0 to 25%
CC(=O)Nc1nc(OCc2ccc(C(F)(F)F)cc2)ncc1F [Compound 947],pest or weed control at 50 ppm,"24 h, one day protectant",76 to 100%
same,pest or weed control at 200 ppm,"24 h, one day protectant",76 to 100%
Fc1cnc(OC2CCCCC2)nc1NCCc1ccccc1 [Compound 837],pest or weed control at 50 ppm,"24 h, one day protectant",0 to 25%
same,pest or weed control at 200 ppm,"24 h, one day protectant",0 to 25%
Nc1nc(OCc2nccs2)ncc1F [Compound 628],pest or weed control at 25 ppm,[13],26 to 50%
same,pest or weed control at 100 ppm,[14],76 to 100%
same,pest or weed control at 25 ppm,[15],51 to 75%
same,pest or weed control at 100 ppm,[16],76 to 100%
O=CNc1nc(OS(=O)(=O)c2ccccc2)ncc1F [Compound 646],pest or weed control at 25 ppm,[13],51 to 75%
same,pest or weed control at 100 ppm,[14],76 to 100%
same,pest or weed control at 25 ppm,[15],76 to 100%
same,pest or weed control at 100 ppm,[16],76 to 100%
COc1ncc(F)c(N(NC(=O)c2ccc(Cl)cc2)C(=O)c2ccc(Cl)cc2)n1 [Compound 1128],pest or weed control at 25 ppm,[1],0 to 25%
same,pest or weed control at 25 ppm,[2],0 to 25%
same,pest or weed control at 25 ppm,[3],0 to 25%
same,pest or weed control at 100 ppm,[4],0 to 25%
Cc1ccc(COc2ncc(F)c(NCCc3ccccc3)n2)cc1 [Compound 926],pest or weed control at 50 ppm,"24 h, one day protectant",76 to 100%
same,pest or weed control at 200 ppm,"24 h, one day protectant",76 to 100%
COc1ncc(F)c(N/N=C(\C)c2cc3ccccc3o2)n1 [Compound 1019],pest or weed control at 25 ppm,[1],26 to 50%
same,pest or weed control at 25 ppm,[2],26 to 50%
same,pest or weed control at 25 ppm,[3],0 to 25%
same,pest or weed control at 100 ppm,[4],0 to 25%
CC(C)S(=O)(=O)Nc1nc(OCc2ccc(F)cc2)ncc1F [Compound 1004],pest or weed control at 25 ppm,[1],0 to 25%
same,pest or weed control at 25 ppm,[2],0 to 25%
same,pest or weed control at 25 ppm,[3],0 to 25%
same,pest or weed control at 100 ppm,[4],26 to 50%
Oc1ncc(F)c(NCOCc2ccccc2)n1 [Compound 1082],pest or weed control at 25 ppm,[1],0 to 25%
same,pest or weed control at 25 ppm,[2],0 to 25%
same,pest or weed control at 25 ppm,[3],0 to 25%
same,pest or weed control at 100 ppm,[4],0 to 25%
